The test system of one series is sensitized guinea pigs. Particulars: RLX treatment; cited from earlier work.
In series [1] the test system is TT-specific short-term T cell lines from PBMC. Description: Cytokine production by TT-specific short-term T cell lines expanded with or without RLX. It is filed as cell-based, human. The protocol:
TT-specific short-term T cell lines were generated from PBMC of TT-vaccinated normal donors according to a technique described in M. P. Piccinni et al <<Progesterone favors the development of human T helper cells producing Th2-type cytokines and promotes both IL-4 production and membrane CD30 expression in established TH1 cell clones>>, in J. Immmunol., 1995, 155: 128-133.
Briefly, 10^5 PBMC in 2 ml RPMI 1640 medium supplemented with 2 mM L-glutamine, 2×10^−5M 2-ME and 5% human serum (complete medium) were stimulated in 24-well flat-bottom plates for 5 days with the antigen (0.2?g/ml TT) in the absence or in the presence of RLX at concentrations of 10^−10, 10^−9, 10^−8, 10^−7 and 10^−6 M. Human IL-2 (20 U/ml) was then added and cultures continued for another 9 days. Viable T blasts were resuspended in complete medium and tested for their antigen specificity. To this end, 2×10^4 T blasts were seeded in microplates and cocultured for 48 h with irradiated (6000 rad) autologous PBMC (5×10^4) in the presence of medium alone or 0.1 ? g/ml TT, respectively. After a 16-h pulse with 0.5 ?Ci [^3H]thimidine, cultures where harvested and radioactivity measured by liquid scintillation. The phenotype distribution of TT-specific T cells was assessed by flow cytometer analysis.
(§1) To quantitate cytokine production in supernatants of TT-specific shortterm T cell lines and established T cell clones, […] were cultured in the presence of 20 ng/ml PMA plus 100 ng/ml anti-CD3 mAb. After 36 h culture, cell-free supernatants were collected, filtered, and stored in aliquots at −70° C. until used. Determination of IFN-? was performed by a commercial ELISA (Biosource International, Camarill, Calif.). […] Values of the cytokine content 5 SD over those of control supernatants obtained by stimulation of irradiated feeder cells alone were regarded as positive.
On the other hand, no effect of RLX dilution can be observed on the production of IL-4.

The next series deals with PSS patients. Particulars: cited from earlier work.
Series [2] has as its system adherent cell-enriched fractions of PBMC (monocytes/APC). Description: IL-12 and IFN-? release by adherent cell-enriched fractions of PBMC stimulated with TT. It is filed as cell-based, human. Conditions: stimulated 5 days with TT, absence vs presence of RLX.
The next series concerns CD4+ T cell clone. Nature of the series: Competitive PCR for IFN-? mRNA in a CD4+ T cell clone. In kind it is cell-based, human. The protocol:
Competitive PCRfor IFN-?was performed using a competitorcontrol fragment (PCR MIMIC; Clontech Laboratories Inc. Palo Alto, Calif., USA) according to the manufacturer's instructions. PCR MIMIC was used together with sample cDNA in the reaction mixture; sample and control cDNA were amplified with the same primers, so they competed for the same primers in the same reaction, but were distinguished on gel electrophoresis by differences in length. By knowing the amount of PCR MIMIC added to the reaction, the amount of target cDNA and therefore the initial mRNA levels could be determined. Each sample (and competitor fragment) was subjected to 25 cycles of amplification as described above.
The intensity of the bands for ?-actin obtained by RT-PCR was measured in all the samples to confirm that the same quantities of total RNA were reverse transcribed. In addition, the intensity of the bands for IFN-? obtained by PCR amplification (MIMIC and samples) and by Southern blot was also measured. A CCD video camera C3077/01 (Hamamatsu Photonics, Tokyo, Japan) interfaced with an Apple Macintosh personal computer was used. Acquisition of images was obtained with Imagequest IQBase software (Hamamatsu Photonics). Image processing and analysis was performed with the free-share software IMAGE (National Institutes of Health, Research Services, Branch NIMH, version 1.28).

Series [3] relates to established CD4+ T cell clones (Th0-like). Nature of the series: Cytokine production (ELISA) by established CD4+ T cell clones stimulated with insolubilized anti-CD3 mAb. Conditions: for levels of IFN-?: 12 CD4+ clones, insolubilized anti-CD3 mAb, p<0.03 vs absence of RLX (3.6±0.98 ng/ml). In kind it is cell-based, human. The protocol:
To generate T cell clones, PBMC from normal subjects were seeded under limiting dilution conditions (0.3 cell/well) in six round-bottom microwell plates containing […] (6000 rad) allogeneic PBMC (as feeder cells) and PHA (1% vol/vol) in a final volume of 0.2 ml complete medium supplemented with 20 U/ml IL-2 and 10% FCS. Growing microcultures where then supplemented, at weekly intervals, with 20 U/ml IL-2 and 10^5 irradiated feeder cells. The phenotype distribution of T cell clones was assessed by flow cytometer-analysis.
as §1
The two curves shown in FIG. 2 relate to two CD4^+ T cell clones stimulated with immobilised anti-CD3 antibody in the presence or in the absence of different concentrations of RLX for 36 h. […] Total RNA was extracted as described herein after. 1?g of RNA was reversed transcribed and cDNA were amplified and then subjected to PCR amplification with primers for IFN-? and IL4 as discussed more in detail below.
To provide unequivocal evidence of the direct effect of RLX on T cells, the activity of RLX on the IFN-? mRNA expression and IFN-? production by established T cell clones was examined. To this end, 12 CD4^+ T cells clones showing a Th0-like profile (production of both IFN-? and IL-4) were cultured in the absence of any other cell type and stimulated with insolubilized anti-CD3 mAb in the presence or absence of RLX. […] The levels of IL-4 produced by the same CD4+T cell clones were not altered by the presence of RLX.

For series [4], the system named is established CD4+ T cell clones. Nature of the series: RT-PCR of IFN-? and IL-4 mRNA in established CD4+ T cell clones. In kind it is cell-based, human. Particulars: two clones, 10^−8 M RLX vs absence. The protocol: To induce cytokine mRNA expression in established T cell clones for RNA extraction 2×10^5 T blasts from each clone were cultured with insolubilized anti-CD3 (1?g/ml). After 12 h, pellets were washed four times with PBS at pH 7.2 and kept frozen until used. Total RNA was extracted using Ultraspec RNA Isolation kit (Biotex Laboratories, Inc. Houston, Tex., USA). […] Following extraction, 1 ?g of RNA was reverse transcribed by M-MLV reverse transcriptase (Gibco-BRL, Gaithersburg, Md., USA). All cDNA were amplified with primers for ?-actin to test the quality of cDNA and then subjected to PCR amplification with primers for IFN-? and IL-4. In each PCR reaction a positive control and a negative control (without cDNA as template to exclude contamination) were included. PCR analysis was carried out in a DNA thermal cycler (Idaho Technology, Idaho Falls, ID, USA). […] The size of the amplified products was evaluated by comparison with molecular weight markers run in parallel lanes.
The intensity of the bands for ?-actin obtained by RT-PCR was measured in all the samples to confirm that the same quantities of total RNA were reverse transcribed. In addition, the intensity of the bands for IFN-? obtained by PCR amplification (MIMIC and samples) and by Southern blot was also measured. […]

[5] abbreviates: FIG. 1, mean values, cultures with antigen plus 200 U/ml IL-12 as printed.
Where [6] appears, read: expanded in presence vs absence of RLX.

For relaxin [RLX], in the series with sensitized guinea pigs, the allergic asthma-like reaction result is on record as “reduced” and the bronchial hyperresponsiveness result is reported as “reduced”. For the same substance, in series [1] (setting [5]), the “production of IFN-? in TT-specific T cell lines as a function of RLX concentration (FIG. 1)” value is “increases with the concentration of RLX” and the “production of IL-4 in TT-specific T cell lines as a function of RLX concentration (FIG. 1)” value is “no effect”. Further, the “production of IFN-? in TT-specific T cells” value in series [1] (expanded in presence of RLX at 10^−9, 10-8 and 10^−7 M vs absence of RLX) is listed as “significantly higher”. Further, in series [1] (setting [6]), the “production of IL-4 in TT-specific T cells” value is given as “no significant differences”, the “production of IL-5 in TT-specific T cells” value is “no significant differences” and the “production of IL-6 in TT-specific T cells” value is given as “no significant differences”. Besides, the total skin score result in the series with PSS patients (PSS patients, control phase trial) was “improvement”. For the same substance, the tolerability entry in the series with PSS patients (RLX treatment compared with administration of IFN-?) is “better tolerated”. Besides, in series [2], the “concentration of IFN-? in supernatants” value is listed as “no significant differences” and the “concentration of IL-12 in supernatants” value is “no significant differences”. The “increase of IFN-? mRNA (competitive PCR, image analysis)” value in the series on CD4+ T cell clone (T cell clone no. 2, 10^−8 M RLX vs absence) is reported as “approximately tenfold increase”. Also, in the series with CD4+ T cell clone (T cell clone no. 2, presence of 10^−8 M RLX, absence of RLX 4.1×10^−3), the “IFN-? mRNA amount (competitive PCR)” value was 5×10^−2 attomol/? I. In series [3] (10^−7 M RLX), the “levels of IFN-?” value is given as 5.87±1.63 ng/m. Further, the “levels of IFN-?” value in series [3] (10^−8 M RLX) turned out to be 8.20 ± 2.27 ng/mL. The “levels of IL-4” value in series [3] (same 12 CD4+ T cell clones, presence vs absence of RLX) was “not altered”. Besides, in series [4], the “IFN-? mRNA expression (RT-PCR)” value was “higher levels” and the “IL-4 mRNA levels (RT-PCR)” value was “the same”.
